Legend:
[1] = target: T1, FAK (Homo sapiens, UniProt Q05397); test: FAK Y397 phosphorylation; format: biochemical; conditions: various assays
[2] = system: DBTRG cells; test: MTS/clonogenic antiproliferative and cell viability assay, DBTRG cells; format: cell-based; conditions: 72 hours, estimated from MTS and clonogenic assays
Experimental: (§8) MTT assay protocol: Day 1: cells plated in 96-well plates. Day 2: chemical agents (DMSO) are added to the wells containing cells(in triplicate). Day 3: 100 μM of MTS reagent is added to each well; ager incubating the plates for an hour, readings are taken using a spectrometer.

[3] = system: GL261 cells; test: Tumor growth in glioma syngeneic mouse model (subcutaneous GL261 cells); format: in vivo, mice; conditions: C4 50 mg/kg IP
Experimental: Female SCID mice were purchased six weeks old and were maintained in an animal facility, and all experiments were performed in compliance with NIH animal use guidelines using IACUC protocol. The 2x10^6 U87 cells or GL261 cells were injected into mice subcutaneously. When tumor size reached 100 mm^3, drug was introduced by IP daily, 5 days per week for several weeks. Tumor diameters were measured with calipers and tumor volume in mm^3 was calculated using this formula: tumor volume=(width)^2×Length/2. At the end of the experiment, tumor weight and volume were determined. Tumor samples were collected for Western blotting and for immunohistochemical analysis. Endpoints of anti-tumor efficacy include: 1) differences in tumor size between treated and control animals at termination of the experiment (T/C % and T-C4anal/T-C4%) and 2) differences in blood vessel density and lymphatic vessel density. One hour following the last dose, tumor tissues were snap frozen and Erk1/2, Akt, FAK and VEGFR-3 phosphorylation, as well as total protein levels (to ensure equal loading), were determined ex vivo by Western blot. Tumor tissues were sectioned and stained for total and phosphorylated FAK and VEGFR-3 in addition to TUNEL staining (apoptosis), Ki67 (proliferation), CD31 (angiogenesis) and LYVE1 (lymphangiogenesis). […] Statistical significance was determined at P<0.05.

[4] = system: U-87 cells; test: MTS/clonogenic antiproliferative and cell viability assay, U-87 cells; format: cell-based; conditions: Homo sapiens, U-87 MG, 72 hours, estimated from MTS and clonogenic assays
Experimental: as §8

[5] = system: U87 cells; test: Tumor growth in glioblastoma mouse model (subcutaneous U87 cells); format: in vivo, mice; conditions: C4 50 mg/kg IP
Experimental: Female SCID mice were purchased six weeks old and were maintained in an animal facility, and all experiments were performed in compliance with NIH animal use guidelines using IACUC protocol. The 2x10^6 U87 cells or GL261 cells were injected into mice subcutaneously. When tumor size reached 100 mm^3, drug was introduced by IP daily, 5 days per week for several weeks. Tumor diameters were measured with calipers and tumor volume in mm^3 was calculated using this formula: tumor volume=(width)^2×Length/2. At the end of the experiment, tumor weight and volume were determined. Tumor samples were collected for Western blotting and for immunohistochemical analysis. Endpoints of anti-tumor efficacy include: 1) differences in tumor size between treated and control animals at termination of the experiment (T/C % and T-C4anal/T-C4%) and 2) differences in blood vessel density and lymphatic vessel density. One hour following the last dose, tumor tissues were snap frozen and Erk1/2, Akt, FAK and VEGFR-3 phosphorylation, as well as total protein levels (to ensure equal loading), were determined ex vivo by Western blot. Tumor tissues were sectioned and stained for total and phosphorylated FAK and VEGFR-3 in addition to TUNEL staining (apoptosis), Ki67 (proliferation), CD31 (angiogenesis) and LYVE1 (lymphangiogenesis). Necropsy was performed to evaluate drug toxicity. Experiments were repeated at least in triplicate, and data were reported as mean ±standard error of the mean. An ANOVA or student's t-test was used as appropriate to compare data between groups. Statistical significance was determined at P<0.05.

[6] = 7-day multiple-dose MTD toxicologic study of Suprastin (C4), oral gavage, CD-1 mice; format: in vivo; conditions: both sexes, CD-1, mouse, in vivo; oral gavage in mice, daily for 7 days
Experimental: (§1) • A 7-day, multiple-dose maximum tolerated dose toxicologic study of the drug Suprastin (C4) was performed in CD-1 mice.
(§2) • The drug Suprastin (C4) was the test article. The chemical name for Suprastin is chloropyramine hydrochloride or N-[(4-chlorophenyl) methyl]-N[2-(dimethylamino) ethyl] pyridin-2-amine. The test article was prepared in sterile water. The test article was prepared by the sponsor and delivered to the study director prior to the study. The test article was stored in the refrigerator (4° C.), protected from light. • Control article:
(§3) The CD-1 [Hsd:ICR(CD-1)] albino mouse was used. The CD-1 mouse is conventionally used in toxicity tests to provide information on which human hazards can be judged, and is one of the choices of species preferred by regulatory agencies. Mice were obtained from Harlan (Frederick, Md.).
(§4) Mice were acclimated for 2 days prior to testing. 20 male and 20 female mice, nulliparous and non-pregnant, were used. Normal weight gain, appearance and behavior were factors used to select healthy mice for testing. Only naive animals were used. Mice weighed 23-33 grams (males) and 19-26 grams (females), and were in good health at the start of the study. Mice weighed 22-35 grams (males) and 18-26 grams (females) at the conclusion of the study.
(§5) Mice were randomly assigned to 4 experimental groups (controls, low-dose, medium-dose, and high-dose) consisting of 5 males and 5 females. Mice were identified via cage cards, tail markings, and ear punch. Mouse identification codes contained information regarding experimental group (C=control, L=low-dose, IVI=medium-dose, H=high-dose), sex (M−male, F−female), and animal number (1-5).
(§6) • A 7-day multiple-dose MTD toxicology study was performed.
(§7) • The test article Suprastin (C4) was prepared in sterile water and administered orally (PO) via orogastric gavage as a single daily dose on days 0-6 in the morning. The compound was diluted with the control article (sterile water) so as not to exceed a volume of […]. The test article (Suprastin) was stored in the refrigerator (4° C.) and allowed to come to room temperature prior to administration. Mice were randomly allocated into 4 groups (controls, low-dose, medium-dose, and high-dose) consisting of 5 males and 5 females. Dosages were calculated on a “per mouse” basis, not on a mg/kg basis. Mice in the low-dose group received the equivalent of a 75 mg/kg dose for a 20 g mouse (1.5 mg). Mice in the medium-dose group received the equivalent of a 150 mg/kg dose for a 20 g mouse (3 mg). Mice in the high-dose group received the equivalent of a 300 mg/kg dose for a 20 g mouse (6 mg). Mice in the control group received 100pL of the control article (sterile water). Groups received the following doses, drug concentrations, and gavage volumes, as outlined in Table 4: […]

[7] = system: CD-1 mice; test: as above; format: in vivo
Experimental: as §1, §2, §3, §4, §5, §6, §7

[8] = literature report; cited from earlier work
[9] = target: IGFR kinase (Homo sapiens, UniProt P08069); conditions: literature report; cited from earlier work
[10] = system: glioma and ovarian tumor; conditions: literature report; cited from earlier work
[11] = target: T1, FAK; conditions: literature report; cited from earlier work

T1 sequence (Q05397 whole entry): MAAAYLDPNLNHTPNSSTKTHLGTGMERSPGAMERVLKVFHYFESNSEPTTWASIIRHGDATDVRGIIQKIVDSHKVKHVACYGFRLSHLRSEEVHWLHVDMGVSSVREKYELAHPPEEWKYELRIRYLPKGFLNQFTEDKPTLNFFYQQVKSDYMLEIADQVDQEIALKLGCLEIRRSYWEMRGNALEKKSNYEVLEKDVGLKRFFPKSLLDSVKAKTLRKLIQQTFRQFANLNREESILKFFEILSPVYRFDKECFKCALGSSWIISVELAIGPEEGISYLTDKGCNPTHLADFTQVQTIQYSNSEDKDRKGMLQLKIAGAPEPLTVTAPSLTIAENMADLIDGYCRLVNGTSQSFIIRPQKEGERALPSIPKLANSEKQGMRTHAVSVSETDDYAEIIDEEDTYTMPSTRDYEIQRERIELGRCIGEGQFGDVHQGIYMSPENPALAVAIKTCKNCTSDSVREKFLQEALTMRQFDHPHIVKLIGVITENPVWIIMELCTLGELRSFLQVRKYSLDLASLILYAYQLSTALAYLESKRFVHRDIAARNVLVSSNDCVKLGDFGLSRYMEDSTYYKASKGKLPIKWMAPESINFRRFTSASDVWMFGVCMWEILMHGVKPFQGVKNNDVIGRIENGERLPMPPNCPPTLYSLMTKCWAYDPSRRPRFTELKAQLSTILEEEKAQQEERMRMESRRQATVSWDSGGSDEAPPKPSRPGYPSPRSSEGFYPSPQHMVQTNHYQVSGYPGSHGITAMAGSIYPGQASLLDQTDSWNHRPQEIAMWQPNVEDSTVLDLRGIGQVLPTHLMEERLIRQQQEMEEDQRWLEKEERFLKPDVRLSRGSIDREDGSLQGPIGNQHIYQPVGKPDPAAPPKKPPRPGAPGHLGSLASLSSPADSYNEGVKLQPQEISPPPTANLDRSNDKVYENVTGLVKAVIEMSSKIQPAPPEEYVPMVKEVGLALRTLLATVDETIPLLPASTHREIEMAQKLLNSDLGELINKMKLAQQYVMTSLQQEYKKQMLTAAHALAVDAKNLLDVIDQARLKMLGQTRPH
IGFR kinase, sequence (P08069 31-1367): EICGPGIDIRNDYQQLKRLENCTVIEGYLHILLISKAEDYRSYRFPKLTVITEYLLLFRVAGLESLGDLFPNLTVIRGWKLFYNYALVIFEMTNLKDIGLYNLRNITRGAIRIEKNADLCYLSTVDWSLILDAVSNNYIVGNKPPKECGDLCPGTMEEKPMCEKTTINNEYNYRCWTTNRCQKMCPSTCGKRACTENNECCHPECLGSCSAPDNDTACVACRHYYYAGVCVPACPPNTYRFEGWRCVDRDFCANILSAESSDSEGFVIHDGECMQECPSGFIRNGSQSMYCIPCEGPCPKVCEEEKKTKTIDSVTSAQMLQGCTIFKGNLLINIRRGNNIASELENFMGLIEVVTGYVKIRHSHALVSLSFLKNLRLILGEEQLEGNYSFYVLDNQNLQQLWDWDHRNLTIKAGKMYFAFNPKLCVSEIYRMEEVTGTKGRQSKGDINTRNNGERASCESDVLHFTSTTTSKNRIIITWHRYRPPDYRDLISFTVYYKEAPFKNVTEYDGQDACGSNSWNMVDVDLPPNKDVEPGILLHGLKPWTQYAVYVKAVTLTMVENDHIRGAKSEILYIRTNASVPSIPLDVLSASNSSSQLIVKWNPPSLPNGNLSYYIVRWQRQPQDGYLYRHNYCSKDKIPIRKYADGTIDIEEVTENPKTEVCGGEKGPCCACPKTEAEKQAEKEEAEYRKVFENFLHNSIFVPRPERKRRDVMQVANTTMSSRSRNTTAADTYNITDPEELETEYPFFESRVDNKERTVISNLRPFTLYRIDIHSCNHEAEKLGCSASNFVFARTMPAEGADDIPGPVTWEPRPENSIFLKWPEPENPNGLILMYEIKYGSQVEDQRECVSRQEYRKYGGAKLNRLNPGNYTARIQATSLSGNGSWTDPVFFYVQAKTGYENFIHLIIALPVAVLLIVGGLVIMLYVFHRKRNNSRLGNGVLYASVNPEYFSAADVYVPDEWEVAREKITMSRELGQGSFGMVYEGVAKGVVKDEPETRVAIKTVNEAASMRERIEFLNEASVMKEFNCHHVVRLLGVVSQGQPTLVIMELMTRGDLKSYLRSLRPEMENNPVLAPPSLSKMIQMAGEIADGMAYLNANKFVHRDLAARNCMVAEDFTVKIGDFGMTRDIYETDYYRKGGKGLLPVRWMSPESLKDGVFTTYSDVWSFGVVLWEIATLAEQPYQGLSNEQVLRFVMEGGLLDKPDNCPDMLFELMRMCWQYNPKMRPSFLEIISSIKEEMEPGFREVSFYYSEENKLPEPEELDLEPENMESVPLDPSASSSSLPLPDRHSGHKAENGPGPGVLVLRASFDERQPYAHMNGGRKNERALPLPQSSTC

CN(C)CCN(Cc1ccc(Cl)cc1)c1ccccn1 [C4, N′-[(4-chlorophenyl)methyl]-N,N-dimethyl-N′-pyridin-2-yl-ethane-1,2-diamine]
FAK dephosphorylation [1]: specifically dephosphorylates FAK
IC50 [2]: 50 to 100 µM
tumor growth reduction (tumor weight) ([3]; after 3 weeks of treatment): 57%
weight of treated tumors vs control group ([3]; after 23 days of treatment): significantly smaller
IC50 [4]: 50 to 100 µM
tumor growth reduction (tumor weight) ([5]; after 4 weeks of treatment): 71.7%
tumor volume smaller in the treated group ([5]; after 4 weeks of treatment): 58%
size of treated tumors vs control group ([5]; after 9 days of treatment): significantly smaller
weight of treated tumors vs control group ([5]; after 27 days of treatment): significantly smaller
MTD at 7 days [6]: ≥ 150 mg/kg
clinical signs, low- and medium-dose groups ([7]; mouse, in vivo): slight ruffled fur
toxicity findings, high-dose group ([7]; mouse, in vivo, po, 300 mg/kg): weight loss, severe clinical signs of abdominal distention, and mortality due to gastrointestinal dilatation
mortality and body weight, low- and medium-dose groups ([7]; oral gavage daily days 0-6, 75 and 150 mg/kg): no mortality or decrement in mean body weight

CS(=O)(=O)c1cccc(CNc2nc(Nc3ccc4c(c3)CCC(=O)N4)ncc2C(F)(F)F)c1 [PF-573,228]
cell growth and survival in vitro [8]: did not inhibit cell growth and survival in vitro
cell motility [8]: inhibited only motility

CNC(=O)c1ccccc1Nc1nc(Nc2ccc(N3CCOCC3)cc2OC)ncc1Cl [TAE226]
IGFR kinase inhibition [9]: inhibited IGFR kinase
tumor growth in vivo [10]: inhibited glioma and ovarian tumor growth in vivo
Y397-FAK phosphorylation [11]: effectively blocked
